Reference: the supplement of paper PMC10627819

Legend:
Settings in all cases: main component drawn
[1] = system: S. aureus Newman; assay: fitness (endpoint OD595 vs no drug) (fraction); higher = more growth
Procedure, shortened: (§1)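 Each well of a 384-well plate received 30 µl of culture at OD595 0.01, or 55 µl for S. pneumoniae. TSB, LB Lennox or CY served as media at 37 °C. OD595 was taken every 30 min for 14 h and corrected by subtracting the first reading. Fitness is the optical density at stationary-phase entry divided by the robust mean of no-drug controls, capped at 1.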

[2] = system: B. subtilis 168; assay: Bliss interaction score (quartile over a dose matrix) (fitness difference); higher = more antagonism (negative = synergy)
Procedure, shortened: (§2)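 Fitness here means normalised growth, inferred for single drugs from the combination data. Growth was OD595 at entry into stationary phase, divided by the plate's robust no-drug mean and capped at 1. The Bliss score is observed minus expected fitness, with the expectation being the product, and its quartiles span technical, biological and donor/recipient replicates.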

[3] = system: S. aureus DSM 20231; assay: as above
Procedure, shortened: as §2

[4] = system: S. aureus Newman; assay: as above
Procedure, shortened: as §2

[5] = system: S. pneumoniae D39V; assay: as above
Procedure, shortened: as §2

[6] = system: B. subtilis 168; assay: fitness (endpoint OD595 vs no drug) (fraction); higher = more growth
Procedure, shortened: as §1

[7] = system: S. pneumoniae D39V; assay: as above
Procedure, shortened: as §1
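Wherever Bliss interaction score (quartile over a dose matrix) is given: first quartile when negative (synergy) and third quartile when positive (antagonism).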

CC[C@H](C)[C@H](N)C1=N[C@H](C(=O)N[C@@H](CC(C)C)C(=O)N[C@H](CCC(=O)O)C(=O)N[C@H](C(=O)N[C@H]2CCCCNC(=O)[C@H](CC(N)=O)NC(=O)[C@@H](CC(=O)O)NC(=O)[C@H](Cc3cnc[nH]3)NC(=O)[C@@H](Cc3ccccc3)NC(=O)[C@H]([C@@H](C)CC)NC(=O)[C@@H](CCCN)NC2=O)[C@@H](C)CC)CS1 [Bacitracin] + Cn1nnc(-c2ccc(-c3ccc(N4C[C@H](CO)OC4=O)cc3F)cn2)n1 [Tedizolid]
fitness, [1]
Settings | first compound 18.75 µg/mL | first compound 37.5 µg/mL | first compound 75 µg/mL
partner 0.0625 µg/mL | 0.646 | 0.0796 | 0.0039
partner 0.125 µg/mL | – | 0.0327 | 0.0056
partner 0.25 µg/mL | 0.0222 | 0.0202 | 0.0046

Settings | Bliss interaction score
[2] | -0.0855
[3] | -0.0663
[4] | -0.222
[5] | 0.12

CC[C@H](C)[C@H](N)C1=N[C@H](C(=O)N[C@@H](CC(C)C)C(=O)N[C@H](CCC(=O)O)C(=O)N[C@H](C(=O)N[C@H]2CCCCNC(=O)[C@H](CC(N)=O)NC(=O)[C@@H](CC(=O)O)NC(=O)[C@H](Cc3cnc[nH]3)NC(=O)[C@@H](Cc3ccccc3)NC(=O)[C@H]([C@@H](C)CC)NC(=O)[C@@H](CCCN)NC2=O)[C@@H](C)CC)CS1 [Bacitracin] + O=C(N[C@H](CO)[C@H](O)c1ccc([N+](=O)[O-])cc1)C(Cl)Cl [Chloramphenicol]
fitness, [1]
Settings | first compound 18.75 µg/mL | first compound 37.5 µg/mL | first compound 75 µg/mL
partner 0.75 µg/mL | 0.589 | 0.182 | 0.0093
partner 1.5 µg/mL | 0.38 | 0.0293 | 0.0143
partner 3 µg/mL | 0.0184 | 0.0086 | 0.0146

Settings | Bliss interaction score
[2] | -0.106
[3] | -0.0262
[4] | -0.0971
[5] | -0.0459

CC(=O)NC[C@H]1CN(c2ccc(N3CCOCC3)c(F)c2)C(=O)O1 [Linezolid] + CCC(C)C1C(=O)NC(=C)C(=O)NC(C(=O)NC(CSCC(C(=O)N1)NC(=O)/C(=C/C)/NC(=O)C(C(C)CC)N)C(=O)NC2C(SCC(NC(=O)CNC(=O)C3CCCN3C2=O)C(=O)NC(CCCCN)C(=O)NC4C(SCC(NC(=O)CNC(=O)C(NC(=O)C(NC(=O)C(NC(=O)CNC4=O)C)CC(C)C)CCSC)C(=O)NC(CC(=O)N)C(=O)NC(CCSC)C(=O)NC(CCCCN)C(=O)NC5C(SCC6C(=O)NC(C(=O)NC(CSC(C(C(=O)N6)NC(=O)C(NC5=O)C)C)C(=O)NC(CO)C(=O)NC(C(C)CC)C(=O)NC(CC7=CN=CN7)C(=O)NC(C(C)C)C(=O)NC(=C)C(=O)NC(CCCCN)C(=O)O)CC8=CN=CN8)C)C)C)CC(C)C [Nisin]
fitness, [6], one replicate
Settings | first compound 0.0625 µg/mL | first compound 0.125 µg/mL | first compound 0.25 µg/mL | first compound 0.5 µg/mL
partner 0.5 µg/mL | 0.875 | – | – | 0.0342
partner 1 µg/mL | 0.743 | – | – | 0.0597
partner 1.25 µg/mL | – | 0.734 | 0.502 | 0.074
partner 1.6 µg/mL | – | 0.411 | 0.0282 | 0.027
partner 2 µg/mL | 0.547 | – | – | 0.0406
partner 2.5 µg/mL | – | 0.187 | 0.118 | 0.0568
partner 3.2 µg/mL | – | 0.0219 | 0.0214 | 0.042
partner 4 µg/mL | – | 0.038 | 0.0369 | 0.023
partner 5 µg/mL | – | 0.0523 | 0.0422 | 0.0652
partner 6.4 µg/mL | – | 0.0537 | 0.0573 | 0.0278
partner 8 µg/mL | – | 0.0224 | 0.0244 | 0.019
partner 16 µg/mL | – | 0.0095 | 0.0006 | 0.0145

Settings | fitness
[6], first compound 0.125 µg/mL, partner 0.5 µg/mL | 0.503
[6], first compound 0.125 µg/mL, partner 1 µg/mL | 0.421
[6], first compound 0.125 µg/mL, partner 2 µg/mL | 0.111
[6], first compound 0.25 µg/mL, partner 0.5 µg/mL | 0.167
[6], first compound 0.25 µg/mL, partner 1 µg/mL | 0.0862
[6], first compound 0.25 µg/mL, partner 2 µg/mL | 0.0407
[7], first compound 0.105 µg/mL, partner 1.6 µg/mL | 0.0032
[7], first compound 0.105 µg/mL, partner 3.2 µg/mL | 0.0264
[7], first compound 0.105 µg/mL, partner 6.4 µg/mL | 0.015
[7], first compound 0.2 µg/mL, partner 0.4275 µg/mL | 0.804
[7], first compound 0.2 µg/mL, partner 0.855 µg/mL | 0.657
[7], first compound 0.2 µg/mL, partner 1.71 µg/mL | 0.0574
[7], first compound 0.21 µg/mL, partner 1.6 µg/mL | 0
[7], first compound 0.21 µg/mL, partner 3.2 µg/mL | 0.0008
[7], first compound 0.21 µg/mL, partner 6.4 µg/mL | 0
[7], first compound 0.4 µg/mL, partner 0.4275 µg/mL | 0.63
[7], first compound 0.4 µg/mL, partner 0.855 µg/mL | 0.314
[7], first compound 0.4 µg/mL, partner 1.71 µg/mL | 0.0313
[7], first compound 0.42 µg/mL, partner 1.6 µg/mL | 0.0074
[7], first compound 0.42 µg/mL, partner 3.2 µg/mL | 0.0019
[7], first compound 0.42 µg/mL, partner 6.4 µg/mL | 0.0156
[7], first compound 0.8 µg/mL, partner 0.4275 µg/mL | 0.132
[7], first compound 0.8 µg/mL, partner 0.855 µg/mL | 0.0545
[7], first compound 0.8 µg/mL, partner 1.71 µg/mL | 0.0571

Settings | Bliss interaction score
[2] | -0.0535
[3] | -0.0557
[4] | -0.0621
[5] | -0.0674
